Measurements taken from patent publication US20040044006A1, “Methods of use of quinolone compounds against pneumococcal and haemophilus bacteria” (priority 1999, published 2004).
Converted amounts (≈) assume the structure as drawn. Where two headings read alike, the source gives them in different places.

Tests used:
[1] = system: pneumococci with ciprofloxacin MICs ≧8 μg/ml; test: Quinolone agar dilution MICs of 28 ciprofloxacin resistant pneumococcal strains, correlated with QRDR mutations; type: cell-based, Streptococcus pneumoniae
Experimental: Additionally these strains were tested for mutations in parC, gyrA, parE, and gyrB (Pan, et al. Antimicrob. Agents Chemother. 40:2321-2326, 1996) and for efflux mechanism (Brenwald, et ail., Antimicrob. Agents Chemother. 42:2032-2035, 1998).
Gemifloxacin susceptibility powder was obtained from SmithKline Beecham Laboratories, Harlow, UK. Agar dilution methodology was performed on 28 strains as described previously (M. R. Jacobs, Clin. Infect. Dis. 15: 119-127, […] and M. R. Jacobs, Rev. Med. Microbiol. 6:77-93, 1995), using Mueller-Hinton altar (BBL Microbiology Systems, Cockeysville, Md.) supplemented with 5% sheep blood. Standard quality control strains, including Streptococcus pneumoniae ATCC 49619, were included in each run of agar dilution MICs.

pneumococcal strains = test: Microbroth dilution MICs of strains tested by time-kill and PAE; type: cell-based; settings: Streptococcus pneumoniae, read-out: Microdilution MIC
How it was run: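 Broth MICs per NCCLS in cation-adjusted Mueller-Hinton broth with 5% lysed defibrinated horse blood. Used for 12 time-kill and 6 PAE strains. S. pneumoniae ATCC 49619 run as quality control.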

[2] = system: pneumococci (5 quinolone susceptible and 1 resistant strains); test: Post-antibiotic effect (PAE) testing; type: cell-based, Streptococcus pneumoniae
How it was run: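 Pneumococci (~5×10^6 cfu/ml) in MHB with 5% lysed horse blood were exposed 1 h at 35 °C, the quinolone-resistant strain at 5×MIC, then diluted 1:1000. Viable counts every 2 h until McFarland #1 turbidity. PAE = T − C, the 1 log10 regrowth time versus untreated control; mean of two assays ±SD.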

[3] = system: quinolone-resistant Haemophilus influenzae strains; test: Microdilution MIC determination in HTM for quinolone-resistant Haemophilus influenzae strains; type: cell-based; settings: 9 quinolone-resistant Haemophilus influenzae strains
How it was run: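 Broth microdilution in HTM, inoculum from 24 h chocolate agar colonies by direct suspension to a final 3-8×10^5 CFU/ml. Incubated in ambient air at 35° C. for 20-24 hours; MIC read as the lowest concentration with no growth.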

N[C@@H]1[C@H]2CN(c3nc4c(cc3F)c(=O)c(C(=O)O)cn4-c3ccc(F)cc3F)C[C@@H]12 [Trovafloxacin, trovafloxacin]
MIC50 ([1]; Streptococcus pneumoniae): 1 µg/mL (≈ 2.4 µM) | MIC90 ([1]; Streptococcus pneumoniae): 4 µg/mL (≈ 9.61 µM) | MIC ([1]; Streptococcus pneumoniae, read-out: MICs in strains with three or four QRDR mutations, 20 strains, bound holds in all 20 (ciprofloxacin, levofloxacin, sparfloxacin), 19 (grepafloxacin), 10 (trovafloxacin), 18 (gemifloxacin)): > 2 µg/mL | MIC ([1]; Streptococcus pneumoniae, read-out: MICs in strains with three or four QRDR mutations, 21 strains, bound holds in all 21 (ciprofloxacin, levofloxacin, sparfloxacin), 20 (grepafloxacin), 11 (trovafloxacin), 19 (gemifloxacin)): ≥ 2 µg/mL | MIC ([1]; Streptococcus pneumoniae, strain 1, ParC S79-F, ParE I460-V, GyrA S81-F, GyrB None): 2 µg/mL (≈ 4.8 µM) | MIC ([1]; Streptococcus pneumoniae, strain 1, ParC S79-F, ParE I460-V, GyrA S83-F, GyrB None): 2 µg/mL (≈ 4.8 µM) | MIC ([1]; Streptococcus pneumoniae, strain 2, ParC S79-Y, ParE I460-V, GyrA None, GyrB None): 0.25 µg/mL (≈ 0.6 µM) | MIC ([1]; Streptococcus pneumoniae, strain 3, ParC D83-N, ParE I460-V, GyrA S81-F, GyrB None): 0.25 µg/mL (≈ 0.6 µM) | MIC ([1]; Streptococcus pneumoniae, strain 3, ParC D83-N, ParE I460-V, GyrA S83-F, GyrB None): 0.25 µg/mL (≈ 0.6 µM) | MIC ([1]; Streptococcus pneumoniae, strain 4, ParC S79-F, ParE I460-V, GyrA S81-F, GyrB None): 0.25 µg/mL (≈ 0.6 µM) | MIC ([1]; Streptococcus pneumoniae, strain 4, ParC S79-F, ParE I460-V, GyrA S83-F, GyrB None): 0.25 µg/mL (≈ 0.6 µM) | MIC ([1]; Streptococcus pneumoniae, strain 5, ParC R95-C, ParE D435-N, GyrA S81-F, GyrB None): 0.25 µg/mL (≈ 0.6 µM) | MIC ([1]; Streptococcus pneumoniae, strain 5, ParC R95-C, ParE D435-N, GyrA S83-F, GyrB None): 0.25 µg/mL (≈ 0.6 µM) | MIC ([1]; Streptococcus pneumoniae, strain 6, ParC S79-Y, ParE I460-V, GyrA E85-K, GyrB None): 2 µg/mL (≈ 4.8 µM) | MIC ([1]; Streptococcus pneumoniae, strain 6, ParC S79-Y, ParE I460-V, GyrA E87-K, GyrB None): 2 µg/mL (≈ 4.8 µM) | MIC ([1]; Streptococcus pneumoniae, strain 7, ParC None, ParE I460-V, GyrA None, GyrB None): 0.5 µg/mL (≈ 1.2 µM) | MIC ([1]; Streptococcus pneumoniae, strain 8, ParC S79-Y, ParE None, GyrA None, GyrB None): 0.5 µg/mL (≈ 1.2 µM) | MIC ([1]; Streptococcus pneumoniae, strain 9, ParC S79-Y, ParE None, GyrA None, GyrB None): 1 µg/mL (≈ 2.4 µM) | MIC ([1]; Streptococcus pneumoniae, strain 10, ParC S79-F, ParE I460-V, GyrA S81-C, GyrB None): 1 µg/mL (≈ 2.4 µM) | MIC ([1]; Streptococcus pneumoniae, strain 10, ParC S79-F, ParE I460-V, GyrA S83-C, GyrB None): 1 µg/mL (≈ 2.4 µM) | MIC ([1]; Streptococcus pneumoniae, strain 11, ParC S79-F, ParE I460-V, GyrA S81-F, GyrB None): 1 µg/mL (≈ 2.4 µM) | MIC ([1]; Streptococcus pneumoniae, strain 11, ParC S79-F, ParE I460-V, GyrA S83-F, GyrB None): 1 µg/mL (≈ 2.4 µM) | MIC ([1]; Streptococcus pneumoniae, strain 12, ParC S79-F, ParE I460-V, GyrA None, GyrB D435-N): 1 µg/mL (≈ 2.4 µM) | MIC ([1]; Streptococcus pneumoniae, strain 13, ParC S79-F, ParE I460-V, GyrA None, GyrB E474-K): 1 µg/mL (≈ 2.4 µM) | MIC ([1]; Streptococcus pneumoniae, strain 14, ParC S79-F, ParE I460-V, GyrA S81-F, GyrB None): 1 µg/mL (≈ 2.4 µM) | MIC ([1]; Streptococcus pneumoniae, strain 14, ParC S79-F, ParE I460-V, GyrA S83-F, GyrB None): 1 µg/mL (≈ 2.4 µM) | MIC ([1]; Streptococcus pneumoniae, strain 15, ParC 79-F, ParE I460-V, GyrA S83-F, GyrB None): 1 µg/mL (≈ 2.4 µM) | MIC ([1]; Streptococcus pneumoniae, strain 15, ParC S79-F, ParE I460-V, GyrA S81-F, GyrB None): 1 µg/mL (≈ 2.4 µM) | MIC ([1]; Streptococcus pneumoniae, strain 16, ParC S79-F, ParE I460-V, GyrA S81-F, GyrB None): 2 µg/mL (≈ 4.8 µM) | MIC ([1]; Streptococcus pneumoniae, strain 16, ParC S79-F, ParE I460-V, GyrA S83-F, GyrB None): 2 µg/mL (≈ 4.8 µM) | MIC ([1]; Streptococcus pneumoniae, strain 17, ParC D83-N, ParE None, GyrA S81-F, GyrB None): 2 µg/mL (≈ 4.8 µM) | MIC ([1]; Streptococcus pneumoniae, strain 17, ParC D83-N, ParE None, GyrA S83-F, GyrB None): 2 µg/mL (≈ 4.8 µM) | MIC ([1]; Streptococcus pneumoniae, strain 18, ParC S79-F, ParE I460-V, GyrA S81-F, GyrB None): 2 µg/mL (≈ 4.8 µM) | MIC ([1]; Streptococcus pneumoniae, strain 18, ParC S79-F, ParE I460-V, GyrA S83-F, GyrB None): 2 µg/mL (≈ 4.8 µM) | MIC ([1]; Streptococcus pneumoniae, strain 19, ParC S79-F, ParE I460-V, GyrA S81-F, GyrB None): 2 µg/mL (≈ 4.8 µM) | MIC ([1]; Streptococcus pneumoniae, strain 19, ParC S79-F, ParE I460-V, GyrA S83-F, GyrB None): 2 µg/mL (≈ 4.8 µM) | MIC ([1]; Streptococcus pneumoniae, strain 20, ParC S79-F, ParE I460-V, GyrA E85-K, GyrB None): 2 µg/mL (≈ 4.8 µM) | MIC ([1]; Streptococcus pneumoniae, strain 20, ParC S79-F, ParE I460-V, GyrA E87-K, GyrB None): 2 µg/mL (≈ 4.8 µM) | MIC ([1]; Streptococcus pneumoniae, strain 21, ParC S79-F, ParE I460-V, GyrA S81-F, GyrB None): 1 µg/mL (≈ 2.4 µM) | MIC ([1]; Streptococcus pneumoniae, strain 21, ParC S79-F, ParE I460-V, GyrA S83-F, GyrB None): 1 µg/mL (≈ 2.4 µM) | MIC ([1]; Streptococcus pneumoniae, strain 22, ParC S79-F, ParE I460-V, GyrA S81-Y, GyrB None): 2 µg/mL (≈ 4.8 µM) | MIC ([1]; Streptococcus pneumoniae, strain 22, ParC S79-F, ParE I460-V, GyrA S83-Y, GyrB None): 2 µg/mL (≈ 4.8 µM) | MIC ([1]; Streptococcus pneumoniae, strain 23, ParC S79-Y, ParE None, GyrA S81-A, GyrB None): 2 µg/mL (≈ 4.8 µM) | MIC ([1]; Streptococcus pneumoniae, strain 23, ParC S79-Y, ParE None, GyrA S83-A, GyrB None): 2 µg/mL (≈ 4.8 µM) | MIC Range ([1]; agar dilution, 28 strains with ciprofloxacin MICs ≧8.0 μg/ml): 0.25 to 8 µg/mL | MIC (pneumococcal strains; strain 1 (S) penicillin susceptible): 0.06 µg/mL (≈ 0.144 µM) | MIC (pneumococcal strains; strain 2 (S) penicillin susceptible): 0.06 µg/mL (≈ 0.144 µM) | MIC (pneumococcal strains; strain 3 (S) penicillin susceptible, quinolone-resistant): 8 µg/mL (≈ 19.2 µM) | MIC (pneumococcal strains; strain 4 (S) penicillin susceptible, quinolone-resistant): 4 µg/mL (≈ 9.61 µM) | MIC (pneumococcal strains; strain 5 (I) penicillin intermediate): 0.06 µg/mL (≈ 0.144 µM) | MIC (pneumococcal strains; strain 6 (I) penicillin intermediate): 0.06 µg/mL (≈ 0.144 µM) | MIC (pneumococcal strains; strain 7 (I) penicillin intermediate): 0.06 µg/mL (≈ 0.144 µM) | MIC (pneumococcal strains; strain 8 (I) penicillin intermediate): 0.125 µg/mL (≈ 0.3 µM) | MIC (pneumococcal strains; strain 9 (R) penicillin resistant): 0.125 µg/mL (≈ 0.3 µM) | MIC (pneumococcal strains; strain 10 (I)): 0.06 µg/mL (≈ 0.144 µM) | MIC (pneumococcal strains; strain 11 (R) penicillin resistant): 0.06 µg/mL (≈ 0.144 µM) | MIC (pneumococcal strains; strain 12 (R) penicillin resistant): 0.125 µg/mL (≈ 0.3 µM) | PAE ([2]; 5×MIC, quinolone resistant strain): 1.3 h | PAE ([2]; 10×MIC for 1 h, range over 5 quinolone susceptible strains): 0.3 to 3.0 h | MIC50 [3]: 1 µg/mL (≈ 2.4 µM) | MIC Range [3]: 0.25 to 8.0 µg/mL
